Source: patent US9255257B2, “PmST1 mutants for chemoenzymatic synthesis of sialyl lewis X compounds” (THE REGENTS OF THE UNIVERSITY OF CALIFORNIA, priority 2011, dated 2016)

Legend:
[1] = target: T1, Pasteurella multocida PmST1 mutant M144D of SEQ ID NO: 13 (M120D of Δ24PmST1, SEQ ID NO: 3) (Pasteurella multocida, UniProt Q15KI8, M144D); test: α2-3-sialyltransferase activity, LacβMU as acceptor; format: biochemical; details: apparent, acceptor, CMP-Neu5Ac 1 mM, Tris-HCl pH 8.5, 37° C.
Procedure: (§1) Site-directed mutagenesis, expression and purification of PmST1 mutants. Site-directed mutagenesis was performed using the QuikChange multi-site-directed mutagenesis kit from Stratagene according to the manufacturer's protocol. The primers used were 5′-[…]-3′ (SEQ ID NO:35) for M144D; 5′-[…]a[…] -3′ (SEQ ID NO:36) for M144H; 5′-[…]-3′ (SEQ ID NO:37) for A35D; and 5′-[…]-3′ (SEQ ID NO:38) for A35H. The expression and purification of the mutants were performed as previously described for the WT PmST1 .
(§2) Kinetics of the α2-3-sialyltransferase activity of PmST1 mutants by HPLC analysis. With LacβMU as the acceptor substrate, the reactions were performed in duplicate at 37° C. for 10 min (M144D) or 4 min (M144H) in a reaction mixture (10 μL) containing Tris-HCl (100 mM, pH 8.5), an enzyme (5 μg mL^−1), and different concentrations (0.2, 0.5, 1.0, 2.0, and 5.0 mM) of LacβMU with a fixed concentration (1 mM) of CMP-Neu5Ac or different concentrations (0.2, 0.5, 1.0, 2.0, 5.0, and 10.0 mM) of CMP-Neu5Ac with a fixed concentration (1 mM) of LacβMU. With Le^xβMU as the acceptor substrate, the reactions were carried out in duplicate at 37° C. for 9 min (M144D) or 10 min (M144H) in a reaction mixture (10 μL) containing CAPSO (100 mM, pH 9.5), an enzyme (M144D, 39 μg mL^−1 or M144H, 5 μg mL^−), and various concentrations of Le^xβMU (1.0, 5.0, 10.0, 15.0, 25.0, and 35.0 mM) with a fixed concentration (1 mM) of CMP-Neu5Ac or various concentrations (0.2, 0.5, 1.0, 2.0, 5.0, 10.0, 20.0, and 40.0 mM) of CMP-Neu5Ac with a fixed concentration (1 mM) of Le^xβMU. Reactions were stopped by adding 10 μL of pre-chilled ethanol. The mixtures were incubated on ice for 30 min and centrifuged at 13,000 rpm for 5 min. The supernatants were diluted with 25% acetonitrile and kept on ice until aliquots of 8 μL were injected and analyzed by the Shimadzu LC-6AD system equipped with a membrane on-line degasser, a temperature control unit, and a fluorescence detector (Shimadzu RF-10AXL). A reverse-phase Premier C18 column (250×4.6 mm i.d., 5 μm particle size, Shimadzu) protected with a C18 guard column cartridge was used. The mobile phase was 25% acetonitrile. The fluorophore (MU)-labeled compounds were detected by excitation at 325 nm and emission at 372 nm. The apparent kinetic parameters were obtained by fitting the experimental data (the average values of duplicate assay results) into the Michaelis-Menten equation using Grafit 5.0.

[2] = target: T2, Pasteurella multocida PmST1 mutant M144H of SEQ ID NO: 13 (M120H of Δ24PmST1, SEQ ID NO: 5) (Pasteurella multocida, UniProt Q15KI8, M144H); test: as above; format: biochemical; details: apparent, acceptor, CMP-Neu5Ac 1 mM, Tris-HCl pH 8.5, 37° C.
Procedure: as §1, §2

[3] = target: Pasteurella multocida α2-3-sialyltransferase 1 (PmST1), wild type (WT), SEQ ID NO: 13 (Pasteurella multocida, UniProt Q15KI8); details: apparent, acceptor, read-out: Km for LacβMU; cited from earlier work
[4] = target: Pasteurella multocida PmST1 mutant E271F of SEQ ID NO: 13 (E247F of Δ24PmST1, SEQ ID NO: 7) (Pasteurella multocida, UniProt Q15KI8, E271F); test: α2-3-sialyltransferase activity, LacβMU as acceptor; format: biochemical; details: apparent, acceptor, CMP-Neu5Ac 1 mM, Tris-HCl pH 8.5, 37° C.
Procedure: (§3) To obtain the apparent kinetic parameters of LacβMU as the acceptor for the α2-3-sialyltransferase activity, the kinetic assays were performed in duplicate in reaction mixtures of 10 μL containing Tris-HCl buffer (100 mM, pH 8.5), a fixed concentration of CMP-Neu5Ac (1 mM), different concentrations of LacβMU (0.2, 0.5, 1.0, 2.0, 5.0, and 9.0 mM) and the mutant proteins (2 μg mL^−1 of E271F, 2 μg mL^−1 of R313Y, and 1.6 μg mL^−1 of E271F/R313Y). All reactions were allowed to proceed at 37° C. for 5 min (E271F), 7 min (R313Y), and 10 min (E271F/R313Y). The apparent kinetic parameters were obtained by fitting the experimental data (the average values of duplicate assay results) into the Michaelis-Menten equation using Grafit 5.0.
(§4) To obtain the apparent kinetic parameters of CMP-Neu5Ac as the donor for the α2-3-sialyltransferase activity, the kinetic assays were performed in duplicate in reaction mixtures of 10 μL containing Tris-HCl buffer (100 mM, pH 8.5), a fixed concentration of LacβMU (1 mM), different concentrations of CMP-Neu5Ac (0.1, 0.2, 0.5, 1.0, 2.0, 5.0, 10.0 and 20.0 mM) and the mutant proteins (2 μg mL^−1 of E271F, 2 μg mL^−1 of R313Y, and 1.6 μg mL^−1 of E271F/R313Y). All reactions were allowed to proceed at 37° C. for 2 min (E271F), 7 min (R313Y), and 5 min (E271F/R313Y). The apparent kinetic parameters were obtained by fitting the experimental data (the average values of duplicate assay results) into the Michaelis-Menten equation using Grafit 5.0.
(§5) All the sialidase and α2-3-sialyltransferase assays were performed in an HPLC system. Reactions were stopped by adding 10 μL of ethanol. After necessary dilutions were performed to adjust the concentrations of the fluorescent-labeled compounds, the samples were then kept on ice until aliquots of 8 μL were injected and analyzed by a Shimadzu LC-6AD system equipped with a membrane on-line degasser, a temperature control unit, and a fluorescence detector (Shimadzu RF-10AXL). A reverse-phase Premier C18 column (250×4.6 mm i.d., 5 μm particle size, Shimadzu) protected with a C18 guard column cartridge was used. The mobile phase was 25% acetonitrile. The fluorescent compounds LacβMU and Neu5Acα2-3LacβMU were detected by excitation at 325 nm and emission at 372 nm.

[5] = target: Pasteurella multocida PmST1 double mutant E271F/R313Y of SEQ ID NO: 13 (E247F/R289Y of Δ24PmST1, SEQ ID NO: 11) (Pasteurella multocida, UniProt Q15KI8, E271F/R313Y); test: as above; format: biochemical; details: apparent, acceptor, CMP-Neu5Ac 1 mM, Tris-HCl pH 8.5, 37° C.
Procedure: as §3, §4, §5

[6] = target: Pasteurella multocida PmST1 mutant R313Y of SEQ ID NO: 13 (R289Y of Δ24PmST1, SEQ ID NO: 9) (Pasteurella multocida, UniProt Q15KI8, R313Y); test: as above; format: biochemical; details: apparent, acceptor, CMP-Neu5Ac 1 mM, Tris-HCl pH 8.5, 37° C.
Procedure: as §3, §4, §5

[7] = target: T1, Pasteurella multocida PmST1 mutant M144D of SEQ ID NO: 13 (M120D of Δ24PmST1, SEQ ID NO: 3); test: α2-3-sialyltransferase activity, Le^xβMU as acceptor; format: biochemical; details: apparent, acceptor, CMP-Neu5Ac 1 mM, CAPSO pH 9.5, 37° C.
Procedure: as §1, §2

[8] = target: T2, Pasteurella multocida PmST1 mutant M144H of SEQ ID NO: 13 (M120H of Δ24PmST1, SEQ ID NO: 5); test: as above; format: biochemical; details: apparent, acceptor, CMP-Neu5Ac 1 mM, CAPSO pH 9.5, 37° C.
Procedure: as §1, §2

[9] = tested on: CC(=O)N[C@H]1[C@H]([C@H](O)[C@H](O)CO)O[C@@](O[C@H]2[C@@H](O)[C@@H](CO)O[C@@H](O[C@H]3[C@H](O)[C@@H](O)[C@H](Oc4ccc5c(C)cc(=O)oc5c4)O[C@@H]3CO)[C@@H]2O)(C(=O)O)C[C@@H]1O; test: α2-3-sialidase activity, Neu5Acα2-3LacβMU as substrate; format: biochemical, Pasteurella multocida; details: other: apparent, D141A, MES pH 5.5, 37° C., 60 min
Procedure: Kinetic Assays. […] The apparent kinetic parameters were obtained by fitting the experimental data (the average values of duplicate assay results) into the Michaelis-Menten equation using Grafit 5.0.
as §5

[10] = tested on: CC(=O)N[C@H]1[C@H]([C@H](O)[C@H](O)CO)O[C@](OP(=O)(O)OC[C@H]2O[C@@H](n3ccc(N)nc3=O)[C@H](O)[C@@H]2O)(C(=O)O)C[C@@H]1O; test: purified protein, by the assay type; details: other: apparent, donor hydrolysis, D141A, Tris-HCl pH 8.5, 37° C., 40 min
Procedure: The reactions were stopped by adding 10 μL of pre-chilled ethanol. The mixtures were incubated on ice for 30 min and centrifuged at 13,000 rpm for 5 min. The supernatants were diluted with borate buffer (25 mM, pH 9.5) and aliquotes of 5 μL each were injected to a Beckman Coulter P/ACE™ MDQ Capillary Electrophoresis system equipped with a capillary (60 cm×75 μm i.d.) and monitored at 254 nm. The apparent kinetic parameters were obtained by fitting the experimental data (the average values of duplicate assay results) into the Michaelis-Menten equation using Grafit 5.0.

Cc1cc(=O)oc2cc(O[C@@H]3O[C@H](CO)[C@@H](O[C@@H]4O[C@H](CO)[C@H](O)[C@H](O)[C@H]4O)[C@H](O)[C@H]3O)ccc12 [LacβMU, 4-methylumbelliferyl β-lactoside]
kcat (LacβMU) [1]: 22 ± 1 s⁻¹ | kcat (LacβMU) [2]: 21 ± 1 s⁻¹ | Km [3]: 1400 µM | kcat (LacβMU) [4]: 28 ± 1 s⁻¹ | kcat (LacβMU) [5]: 17 ± 1 s⁻¹ | kcat (LacβMU) [6]: 19 ± 1 s⁻¹

CC(=O)N[C@H]1[C@H](Oc2ccc3c(C)cc(=O)oc3c2)O[C@H](CO)[C@@H](O[C@@H]2O[C@H](CO)[C@H](O)[C@H](O)[C@H]2O)[C@@H]1O[C@@H]1O[C@@H](C)[C@@H](O)[C@@H](O)[C@@H]1O [Le^xβMU, 4-methylumbelliferyl β-Le^x]
kcat (Le^xβMU) [7]: 4.0 ± 0.2 s⁻¹ | kcat (Le^xβMU) [8]: 8.4 ± 0.3 s⁻¹

Pasteurella multocida PmST1 mutant D141A (Pasteurella multocida; D141A)
Km [9]: 15000 ± 1000 µM | Km [10]: 1400 ± 200 µM
